From US4468403A, “Analgesic substituted piperidylidene-2-sulfon(cyan)amide derivatives” (priority 1982, dated 1984)
“Also recorded” adds a separate entry of the source. Like-named read-outs stand apart in the source and are kept apart here.

Key:
[1] = format: in vivo, male Swiss albino mice; details: for % Inhibn, control (single agent) in antagonist study: alone
Experimental: (§1) The percent change is calculated according to the following equation: % change=100- (no. of writhes in treated group/no. of writhes in control group)×100.

[2] = Analgesic antagonist testing against analgesic agonists of the W-1 to W-19 and 0-1 to 0-3 series, e.g. W-3 (phenylquinone writhing); format: in vivo, male Swiss albino mice
Experimental: as §1

[3] = Analgesic antagonist testing against morphine sulfate (phenylquinone writhing); format: in vivo, male Swiss albino mice
Experimental: as §1

| SMILES | % Inhibn, control (single agent) in antagonist study ([1]; 0.5 mg/kg sc) [%] | % Inhibn, control (single agent) in antagonist study ([1]; 2.0 mg/kg sc) [%] | % Inhibn, control (single agent) in antagonist study ([1]; 10.0 mg/kg sc) [%] | Analgesic action, inhibition action on phenylquinone writhing: dose giving 50 % inhibition ([1]; subcutaneous, 30 min before phenyl-p-benzoquinone, dose with 50 % inhibition) [mg/kg] | Analgesic action, inhibition action on phenylquinone writhing, % inhibition ([1]; subcutaneous, at the dose listed for the substance under E1) [%] | Antagonist activities, % inhibition of writhing with antagonist + agonist ([2]; Expt. 3: W-20 (0.5 mg/kg sc) 10 min before W-3 (2.0 mg/kg sc)) [%] | Antagonist activities, % inhibition of writhing with antagonist + agonist ([2]; Expt. 4: W-20 (2.0 mg/kg sc) 10 min before W-3 (2.0 mg/kg sc)) [%] | Block of agonist analgesic effect, in words ([2]; W-20 (0.5 mg/kg sc) vs W-3 (2.0 mg/kg sc)) | Block of agonist analgesic effect, in words ([2]; W-20 (2.0 mg/kg sc) vs W-3 (2.0 mg/kg sc)) | Antagonist activities, % inhibition of writhing with antagonist + agonist ([3]; Expt. 1: W-20 (2.0 mg/kg sc) 10 min before MS (0.2 mg/kg sc)) [%] | Antagonist activities, % inhibition of writhing with antagonist + agonist ([3]; Expt. 2: W-20 (10.0 mg/kg sc) 10 min before MS (0.2 mg/kg sc)) [%] | Block of agonist analgesic effect, in words ([3]; W-20 (2.0 mg/kg sc) vs MS (0.2 mg/kg sc)) | Block of agonist analgesic effect, in words ([3]; W-20 (10.0 mg/kg sc) vs MS (0.2 mg/kg sc)) | Antagonist activities, % inhibition of writhing with antagonist + agonist ([2]; Expt. 5: Naloxone (1.0 mg/kg sc) before W-3 (5.0 mg/kg sc)) [%] | Block of agonist analgesic effect, in words ([2]; Naloxone (1.0 mg/kg sc) vs W-3 (5.0 mg/kg sc)) | Antagonist activity, in words ([2]; toward W-3, dose not given) |
| --- | --- | --- | --- | --- | --- | --- | --- | --- | --- | --- | --- | --- | --- | --- | --- | --- |
| O=S(=O)(N=C1CCCCN1CC1CC1)c1ccc(Cl)cc1 [Compound W-20, 1-Cyclopropylmethylpiperidylidene-2-(4-chlorophenyl)sulfonamide] | 36 | 46 | 69 | 2.3 | 50 | 53 | 49 | partial block | complete block; also recorded: completely blocks | 55 | 66 | near complete block | complete block; also recorded: completely blocks |  |  |  |
| C=CCN1CC[C@]23c4c5ccc(O)c4O[C@H]2C(=O)CC[C@@]3(O)[C@H]1C5 [Naloxone, reference compound] |  |  |  |  |  |  |  |  |  |  |  |  |  | 45 | partial block; also recorded: partially blocks | acted as an antagonist toward W-3 |
